Source: US20240000883A1, “METHOD OF SENSITIZING CANCERS TO IMMUNOTHERAPY USING IMMUNOMODULATORY AGENTS” (The Trustees of Columbia University in the City of New York, priority 2020, published 2024)

What was measured:
[1] = tested on: de novo pancreatic ductal adenocarcinoma (PDAC); test: Survival of transgenic KPC mice bearing de novo PDAC under long-term treatment; type: in vivo
Procedure: FIG. 1A is a graph showing the percent survival of transgenic Kras-LSL^[…], p53-LSL^172H, Pdx-1-cre (KPC) mice bearing de novo pancreatic ductal adenocarcinoma (PDAC) treated with gemcitabine (GEM).
FIG. 1 presents data showing that iRGD therapy increases CD8^+ T cells in transgenic PDAC mice. […] We randomized mice to therapy with intraperitoneal (IP) gemcitabine alone (100 mg/kg/injection), intravenous (IV) iRGD alone (100 μg/injection) or gemcitabine co-administered with iRGD. Mice were followed with high resolution ultrasound and manual palpation until at least one tumor nodule of 4-5 mm became both palpable and visible on consecutive ultrasound exams. At this point, the mice were randomized to one of the three treatment arms. Treatment was given every 4 days until the animals were sacrificed for having signs of distress. […] Of note, while there was a difference in median survival favoring the combination (71 days versus 84 days), there was a more striking difference in the tail of the survival curve such that survival at 180 days was 0% for gemcitabine alone versus 40% in the iRGD+gemcitabine group.

Tregs in KPC-luc tumors = test: Targeting of Tregs in KPC-luc PDAC by intravenously injected FAM-iRGD; type: in vivo, mice
Procedure: FIG. 2H is an image showing that intravenously injected FAM-iRGD (green) targets CD4^+ (magenta) Foxp3^+ (red) Tregs in KPC-luc PDAC (white arrowheads). Some iRGD-targeted Foxp3^+ cells were CD4^neg (black arrowheads). Blue=DAPI. Scale bar, 50 μm.
Based on the finding that Tregs in PDAC, but not those in the spleen expressed αv integrins and NPR-1 (the receptors of iRGD), studies were performed to determine whether iRGD selectively targets PDAC-infiltrating Tregs. Intravenously injected FAM-iRGD (green) targets CD4^+ (magenta) Foxp3^+ (red) Tregs in KPC-luc PDAC (See FIG. 2H, white arrowheads). Some iRGD-targeted Foxp3^+ cells were CD4^neg (black arrowheads). Blue, DAPI; scale bar, 50 μm.

Row | Compound | survival at 180 days ([1]; 180 days) | median survival ([1]; treatment every 4 days) | targeting of CD4+ Foxp3+ Tregs in KPC-luc PDAC (Tregs in KPC-luc tumors)
1 | Nc1ccn([C@@H]2O[C@H](CO)[C@@H](O)C2(F)F)c(=O)n1 [gemcitabine] | 0% | 71 days | –
2 | FAM-iRGD: fluorescein (FAM)-labeled iRGD | – | – | targets
